Where a name gives a salt, the structure may show the parent alone.
What follows are compounds tested against Amyloid-beta(1-40) binding to heparin (HS-GAG) (Homo sapiens, UniProt P05067) (assay: Inhibition of Amyloid-beta(1-40) binding to immobilized heparin-BSA (ELISA)). Details: Abeta40/Heparin Activity (IC-50), Abeta(1-40), co-incubation on heparin-BSA plates.
Amyloid-beta(1-40) binding to heparin (HS-GAG), sequence (P05067 672-711): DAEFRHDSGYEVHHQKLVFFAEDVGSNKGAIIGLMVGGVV
Set-up: species or system porcine
Method: Porcine intestinal mucosa heparin conjugated to Bovine Serum Albumin (Heparin-BSA) was prepared as described (Najjam, S. et al. 1997, Cytokine 12, 1013-1022). Heparin is a sulfated HS-GAG and is commonly used as a HS-GAG in biochemical and binding assays (Lindahl, U. and Kjellen, L. (2013) ibid). Heparin-BSA at 0.01 mg/ml in Phosphate Buffered Saline (PBS; pH 7.4) was added to a 96 well polystyrene ELISA plate (NUNC Cat. No. 449824; 100 μl per well) and incubated Over Night (ON) at 4 degrees Celsius. For negative controls, ELISA plates were coated with BSA instead of Heparin-BSA, using the same procedure. Following the incubation, the plate was washed consecutively, by immersion, with de-ionized water and PBS (pH 7.4). The ELISA plate was then blocked with nonfat milk (2%, 200 μl per well) for 2 hours at Room Temperature (RT) with gentle shaking. Following blocking, the plate was washed with de-ionized water then PBS (pH 7.4). GBAPs were dissolved and diluted in PBS (pH 6.5, supplemented with 0.1% BSA) at desired concentrations, added to the ELISA plates containing immobilized Heparin-BSA (100 μl per well) and incubated for 2 hours at RT with gentle shaking. Following incubation, the plate was washed with de-ionized water and three times with PBS (pH 6.5) plus Tween. Bound GBAP was detected by a monoclonal antibody specific for that GBAP, followed by incubation with secondary antibody conjugated to horseradish peroxidase (HRP). Antibody was diluted in PBS (pH 6.5 supplemented with 1% BSA). Following each incubation with antibody, the plate was washed with de-ionized water and three times with PBS (pH 6.5) wash buffer containing 0.1% Tween. The peroxidase substrate chromogen, TMB (Dako Cat. No. S1599) was added (100 μl per well) to the ELISA plate and incubated at room temperature. After 5 minutes ELISA Stop Solution (hydrochloric acid 1N, sulfuric acid 3N) was added (100 μl per well) to stop the peroxidase catalyzed colorimetric reaction. The Optical Density of the samples was measured at 450 nm using an ELISA plate reader (BioTek Synergy H1). Following color development, the % inhibition compared to control (BSA-coated plates) was determined. IC-50s were calculated using GraphPad Prism software.
The assay was performed as described in Example 43, with the following modifications. Following to coating the plates with Heparin-BSA, plates were washed as described. The compounds were dissolved in DMSO at 10 mM final concentration and further diluted prior to assay. DMSO concentration in the screening well was up to 2%. Individual compounds were co-incubated with Beta-amyloid peptides on plates containing immobilized heparin. Beta-amyloid (1-42) was purchased from rPeptide (Cat. No. A1163) and used to prepare oligomers according to Stine et al., 2003 (J Biol Chem. 278(13):11612-22) as follows. 1,1,1,3,3,3-Hexafluoro-2-propanol- (HFIP; Sigma Cat. No. 105228)-treated Beta amyloid (1-42) was dissolved in dry DMSO (Sigma Cat. No. D2650) to 5 mM concentration. Dissolved Beta amyloid (1-42) was then diluted to 100 μM in ice-cold cell culture medium (phenol red-free Ham's F-12; Caisson Labs, Cat. No. HFL05), followed immediately by vortexing for 30 seconds, and incubating at 4 degrees Celsius for 24 h. Resulting Beta amyloid (1-42) oligomers were centrifuged at 12,000 rpm for 10 min at 4 degree Celsius to remove aggregates. Oligomers were then quickly frozen and kept in aliquots at −80 degrees Celsius. Beta-amyloid (1-40) from rPeptide (Cat No. A1153) was dissolved in DMSO, quickly frozen and kept in aliquots at −80 degrees Celsius. Beta-amyloid (1-42) oligomers or Beta-amyloid (1-40) diluted in PBS (pH 6.5, supplemented with BSA, 0.1%) were added to the ELISA plate (100 μl per well) and incubated for 2 hours at RT with gentle shaking. Following the incubation, the plate was washed with de-ionized water and three times with PBS (pH 6.5) plus Tween. […]
Compound `Cc1ncn(-c2ccc(/C=N/Nc3ccnc4cc(Cl)ccc34)cc2)c1C` [Compound 2, (E)-7-chloro-4-((E)-(4-(4,5-dimethyl-1H-imidazol-1-yl)benzylidene)hydrazono)-1,4-dihydroquinoline] has an IC50 of 22.9 µM.
Compound `Clc1ccc2c(Nc3ccc(-n4cncn4)nc3)ncnc2c1` [Compound 34, N-(6-(1H-1,2,4-triazol-1-yl)pyridin-3-yl)-7-chloroquinazolin-4-amine phosphoric acid salt] has an IC50 of 34.8 µM.
Compound `C/C(=N\Nc1ncnc2cc(Cl)ccc12)c1ccc(-n2cnc(C)c2C)nc1` [Compound 16, 7-chloro-4-(2-(1-(6-(4,5-dimethyl-1H-imidazol-1-yl)pyridin-3-yl)ethylidene)hydrazineyl)quinazoline phosphate] has an IC50 of 4.37 µM.
With `C[N+](C)(C)Cc1ccc(/C=N\Nc2ccnc3ccc(Cl)cc23)cc1` [Compound 4, (Z)-1-(4-((2-(6-chloroquinolin-4-yl)hydrazineylidene)methyl)phenyl)—N,N,N-trimethylmethanaminium iodide] the IC50 was 51.3 µM.
In the case of `CCN1CCN(c2ccc(Nc3ccnc4cc5ccccc5cc34)cc2)CC1` [Compound 39, N-(4-(4-ethylpiperazin-1-yl)phenyl)benzo[g]quinolin-4-amine], the IC50 is reported as 20.7 µM.
In the case of `C/C(=N\Nc1ncnc2cc(Cl)ccc12)c1ccc(-n2cc[n+](C)c2)nc1` [Compound 17, (E)-1-(5-(1-(2-(7-chloroquinazolin-4-yl)hydrazineylidene)ethyl)pyridin-2-yl)-3-methyl-1H-imidazol-3-ium iodide phosphoric acid salt], the IC50 is reported as 28.1 µM.
`C/C(=N\Nc1ncnc2ccccc12)c1ccc(-n2cc(C)nc2C)nc1` [Compound 19, (E)-4-(2-(1-(6-(2,4-dimethyl-1H-imidazol-1-yl)pyridin-3-yl)ethylidene)hydrazineyl)quinazoline] was tested, and the IC50 was 10.2 µM.
In the case of `Cc1ncn(-c2ccc(/C=N\Nc3ncnc4cc(Cl)ccc34)cn2)c1C` [Compound 15, 7-chloro-4-(2-((6-(4,5-dimethyl-1H-imidazol-1-yl)pyridin-3-yl)methylene)hydrazineyl)quinazoline hydrochloride], the IC50 is reported as 23 µM.
`CN1CCN(Cc2ccc(/C=N/Nc3ccnc4cc(Cl)ccc34)cc2)CC1` [Compound 7, (E)-7-chloro-4-(2-(4-((4-methylpiperazin-1-yl)methyl)benzylidene)hydrazinyl)quinolone] was tested, and the IC50 was 25.2 µM.

Same assay, conditions: Abeta(1-40), co-incubation on heparin-BSA plates; read-out: Abeta40/Heparin Activity (IC-50)
`C/C(=N\Nc1nncc2cc(Cl)ccc12)c1ccc(-n2cc(C)nc2C)nc1` [Compound 24, (E)-6-chloro-1-(2-(1-(6-(2,4-dimethyl-1H-imidazol-1-yl)pyridin-3-yl)ethylidene)hydrazineyl)phthalazine] was tested, and the IC50 was 6.42 µM.
Work on `CC(=NNc1ncnc2cc(Cl)ccc12)c1ccnc(-n2cnc(C)c2C)c1` [Compound 28, 7-chloro-4-(2-(1-(2-(4,5-dimethyl-1H-imidazol-1-yl)pyridin-4-yl)ethylidene)hydrazineyl)quinazoline] yielded an IC50 of 3.12 µM.

Same assay, conditions: read-out: Abeta40/Heparin Activity (% inhibition class)
`C[n+]1ccn(-c2ccc(Nc3ncnc4cc(Cl)ccc34)cn2)c1` [Compound 43, 1-(5-((7-chloroquinazolin-4-yl)amino)pyridin-2-yl)-3-methyl-1H-imidazol-3-ium iodide phosphoric acid salt] was tested, and the inhibition at 30 µM was less than 30%.
With `COc1cc2nccc(NN=Cc3ccc(-n4ccnc4)c(C)c3)c2cc1OC` [Compound 11, 4-(2-(4-(1H-imidazol-1-yl)-3-methylbenzylidene)hydrazineyl)-6,7-dimethoxyquinoline hydrochloride] the inhibition at 30 µM was greater than 30%.
`COc1cc2nccc(N/N=C/c3ccc(-n4ccnc4)c(OC)c3)c2cc1OC` [Compound 13, (E)-4-(2-(4-(1H-imidazol-1-yl)-3-methoxybenzylidene)hydrazineyl)-6,7-dimethoxyquinoline phosphate] was tested, and the inhibition at 30 µM was less than 30%.

Source: patent US20240398783A1, “Compounds and Pharmaceutical Compositions Comprising Inhibitors of Amyloid Peptide Interactions with Glycosaminoglycans, Methods of Treatment and Use Thereof” (Gismo Therapeutics, Inc., priority 2021, published 2024)
